Experimental data: US20250221988A1 (Cullgen (Shanghai), Inc., priority 2022, published 2025)
Where two headings read alike, the source gives them in different places.

What was measured:
HEL cells = experiment: Cell viability assay in HEL cells; format: cell-based; settings: Homo sapiens
Method: (§1) Cell Culture: RS4;11, MV4;11, MOLM-13 and other cells were cultured at 37° C. with 5% CO2 in RPMI 1640 or DMEM Medium supplemented with 10% fetal bovine serum. Cells were authenticated using the short tandem repeat (STR) assays. Mycoplasma test results were negative.
(§2) Cell viability assays: Cells were seeded at a density of 5000 cells per well in 96-well assay plates and treated with test compounds following a 8-point or 12-point 3-fold serial dilution. Three days later, cell viability was determined using the CellTiter-Glo assay kit according to the manufacturer's instructions. The dose-response curves were determined and IC50 values were calculated using the GraphPad Prism software following a nonlinear regression (least squares fit) method.
(§3) The compounds were tested in HEL, 22RV1, NCI-H82 or NCI-H1155 cells.

NCI-H1155 cells = experiment: Cell viability assay in NCI-H1155 cells; format: cell-based; settings: Homo sapiens, read-out: NCI-H115 IC50
Method: as §1, §2, §3

GSPT1 [1] = target: T1, GSPT1 (Homo sapiens, UniProt P15170+Q96SW2); experiment: Immunoblotting of GSPT1 in MOLM-13 cells; format: cell-based; set-up: endogenous in cells; host or cells: MOLM-13; settings: indicated concentrations, 16 hours
Method: as §1
Antibodies and reagents: Rabbit anti-FLT3 antibody (3462S) was purchased from Cell Signaling Technology. Rabbit anti-GSPT1 antibody (ab126090) was purchased from Abeam. HRP-conjugated anti-α-tubulin antibody was produced in house. Media and other cell culture reagents were purchased from Thermo Fisher. The CellTiter-Glo Luminescent Assay kit was purchased from Promega.
Immunoblotting: Cultured cells were washed with cold PBS once and lysed in cold RIPA buffer supplemented with protease inhibitors and phosphatase inhibitors (Beyotime Biotechnology). The solutions were then incubated at 4° C. for 30 minutes with gentle agitation to fully lyse cells. Cell lysates were centrifuged at 13,000 rpm for 10 minutes at 4° C. and pellets were discarded. Total protein concentrations in the lysates were determined by BCA assays (Beyotime Biotechnology). Cell lysates were mixed with Laemmli loading buffer to 1× and heated at 99° C. for 5 min. Proteins were resolved on SDS-PAGE and visualized by chemiluminescence. Images were taken by a ChemiDoc MP Imaging system (Bio-Rad). Protein bands were quantitated using the accompanied software provided by Bio-Rad.

MOLM-13 cells = experiment: Cell viability assay (CellTiter-Glo) in MOLM-13 cells; format: cell-based; settings: MOLM-13 cells, three days
NCI-H82 cells = experiment: Cell viability assay in NCI-H82 cells; format: cell-based; settings: Homo sapiens
Method: as §1, §2, §3

22RV1 cells = experiment: Cell viability assay in 22RV1 cells; format: cell-based; settings: Homo sapiens
Method: as §1, §2, §3

GSPT1 [2] = target: T1, GSPT1; set-up: MOLM-13 cells were treated at indicated concentrations with compounds GS-729, GS-731, GS-697, and GS-788 for 16 hours prior to immunoblotting; endogenous in cells; host or cells: MOLM-13; settings: Matyskiela, Lu et al. 2016; cited from earlier work
tested cell lines = settings: Matyskiela, Lu et al. 2016; cited from earlier work
MV4;11 cells = experiment: Cell viability assay (CellTiter-Glo) in MV4;11 cells; format: cell-based; settings: MV4;11 cells, three days, read-out: MV4
Summary of the method: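 5000 cells/well in RPMI 1640 or DMEM with 10% FBS, treated with 8- or 12-point 3-fold compound dilutions, with or without gilteritinib (10 nM for MV4;11, 20 nM for MOLM-13). Viability by CellTiter-Glo after three days; IC50 by nonlinear least-squares regression.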

[3] = Homo sapiens, 72 h, compound alone, read-out: MOLM-13 IC50
[4] = Homo sapiens, MV4-11, 72 h, compound alone, 11 IC50
[5] = with 10 nM gilteritinib, 11 IC50 (nM) + 10 nM Gil
[6] = with gilteritinib, read-out: MOLM-13 IC50 (nM) + 10 nM Gil

T1 sequence (P15170 whole entry): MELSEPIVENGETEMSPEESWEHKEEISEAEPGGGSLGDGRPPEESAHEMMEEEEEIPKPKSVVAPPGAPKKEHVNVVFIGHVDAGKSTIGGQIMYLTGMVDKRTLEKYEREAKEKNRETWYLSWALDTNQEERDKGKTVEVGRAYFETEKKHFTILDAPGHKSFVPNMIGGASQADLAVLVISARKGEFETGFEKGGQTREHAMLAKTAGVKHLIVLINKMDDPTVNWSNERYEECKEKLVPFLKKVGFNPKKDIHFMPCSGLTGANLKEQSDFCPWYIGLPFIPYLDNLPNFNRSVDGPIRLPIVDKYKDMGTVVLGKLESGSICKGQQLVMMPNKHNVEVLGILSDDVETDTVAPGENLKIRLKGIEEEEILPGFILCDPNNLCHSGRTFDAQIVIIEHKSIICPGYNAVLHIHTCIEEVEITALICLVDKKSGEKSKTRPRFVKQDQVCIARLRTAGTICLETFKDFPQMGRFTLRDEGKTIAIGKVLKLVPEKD
T1 sequence (Q96SW2 whole entry): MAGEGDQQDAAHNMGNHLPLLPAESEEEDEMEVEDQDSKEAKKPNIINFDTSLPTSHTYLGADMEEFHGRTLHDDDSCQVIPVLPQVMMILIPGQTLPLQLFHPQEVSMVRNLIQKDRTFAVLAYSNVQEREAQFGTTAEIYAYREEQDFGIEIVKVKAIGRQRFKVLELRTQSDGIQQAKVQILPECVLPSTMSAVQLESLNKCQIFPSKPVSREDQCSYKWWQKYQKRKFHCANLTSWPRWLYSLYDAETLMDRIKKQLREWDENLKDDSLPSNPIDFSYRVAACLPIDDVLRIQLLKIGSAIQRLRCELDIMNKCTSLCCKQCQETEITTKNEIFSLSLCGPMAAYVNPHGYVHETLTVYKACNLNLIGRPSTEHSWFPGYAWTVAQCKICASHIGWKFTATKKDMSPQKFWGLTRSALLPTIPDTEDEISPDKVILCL
T1 sequence (Q16531 whole entry partner): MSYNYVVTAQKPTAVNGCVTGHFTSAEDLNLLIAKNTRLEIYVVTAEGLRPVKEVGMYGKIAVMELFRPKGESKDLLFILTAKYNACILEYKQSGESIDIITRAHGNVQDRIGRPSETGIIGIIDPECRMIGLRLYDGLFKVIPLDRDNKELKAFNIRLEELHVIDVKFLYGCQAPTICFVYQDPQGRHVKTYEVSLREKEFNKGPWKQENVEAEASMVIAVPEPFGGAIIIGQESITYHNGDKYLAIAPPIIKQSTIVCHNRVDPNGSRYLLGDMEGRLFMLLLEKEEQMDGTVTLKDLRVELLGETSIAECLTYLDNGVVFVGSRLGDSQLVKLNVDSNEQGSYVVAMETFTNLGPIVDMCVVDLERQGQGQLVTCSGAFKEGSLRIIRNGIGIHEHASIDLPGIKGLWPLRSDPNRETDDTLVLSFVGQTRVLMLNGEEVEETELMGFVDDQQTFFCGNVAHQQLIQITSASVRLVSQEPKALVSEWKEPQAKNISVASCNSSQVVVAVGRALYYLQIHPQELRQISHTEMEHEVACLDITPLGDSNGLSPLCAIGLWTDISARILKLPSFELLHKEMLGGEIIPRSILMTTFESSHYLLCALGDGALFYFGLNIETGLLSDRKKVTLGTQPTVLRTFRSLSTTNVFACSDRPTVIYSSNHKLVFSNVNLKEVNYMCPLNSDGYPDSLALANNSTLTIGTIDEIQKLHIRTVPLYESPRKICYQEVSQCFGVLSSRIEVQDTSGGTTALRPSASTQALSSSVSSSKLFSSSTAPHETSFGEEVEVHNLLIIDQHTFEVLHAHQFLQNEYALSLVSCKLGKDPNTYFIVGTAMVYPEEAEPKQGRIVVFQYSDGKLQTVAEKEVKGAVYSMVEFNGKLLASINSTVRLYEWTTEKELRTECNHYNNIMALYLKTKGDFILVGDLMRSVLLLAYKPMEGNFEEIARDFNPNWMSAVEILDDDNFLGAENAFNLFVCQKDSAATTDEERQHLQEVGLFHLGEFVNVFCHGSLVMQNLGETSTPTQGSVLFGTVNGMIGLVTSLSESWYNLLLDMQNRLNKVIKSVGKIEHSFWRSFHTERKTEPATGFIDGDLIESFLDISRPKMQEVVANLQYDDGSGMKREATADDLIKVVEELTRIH

## Cc1ccc(Cl)c(-c2cn([C@H]3C[C@H](CNc4ccc5c(c4)CN(C4CCC(=O)NC4=O)C5=O)C3)nc2C2CC2)n1 (stereo partly drawn) [GS-805, 3-(5-(((Trans-3-(4-(3-chloro-6-methylpyridin-2-yl)-3-cyclopropyl-1H-pyrazol-1-yl)cyclobutyl)methyl)amino)-1-oxoisoindolin-2-yl)piperidine-2,6-dione]
HEL cells
  IC50: < 10 nM

## Cc1nc(-c2cn([C@H]3C[C@H](CNc4ccc5c(c4)CN(C4CCC(=O)NC4=O)C5=O)C3)nc2C2CC2)c(F)cc1F (stereo partly drawn) [GS-809, 3-(5-(((trans-3-(3-cyclopropyl-4-(3,5-difluoro-6-methylpyridin-2-yl)-1H-pyrazol-1-yl)cyclobutyl)methyl)amino)-1-oxoisoindolin-2-yl)piperidine-2,6-dione]
NCI-H1155 cells
  IC50: < 10 nM

## CNc1cccc(-c2cn([C@H]3C[C@H](CNc4ccc5c(c4)CN(C4CCC(=O)NC4=O)C5=O)C3)nc2C2CC2)n1 (relative stereo) [GS-811, 3-(5-(((Trans-3-(3-cyclopropyl-4-(6-(methylamino)pyridin-2-yl)-1H-pyrazol-1-yl)cyclobutyl)methyl)amino)-1-oxoisoindolin-2-yl)piperidine-2,6-dione]
NCI-H1155 cells
  IC50: 10 to 100 nM

## Nc1cccc(-c2cn([C@H]3C[C@H](CNc4ccc5c(c4)CN(C4CCC(=O)NC4=O)C5=O)C3)nc2C2CC2)n1 (stereo partly drawn) [GS-810, 3-(5-(((Trans-3-(4-(6-aminopyridin-2-yl)-3-cyclopropyl-1H-pyrazol-1-yl)cyclobutyl)methyl)amino)-1-oxoisoindolin-2-yl)piperidine-2,6-dione]
NCI-H1155 cells
  IC50: 10 to 100 nM

## O=C1CCC(N2Cc3cc(NC[C@H]4C[C@H](n5cc(-c6ccc(F)c(C(F)(F)F)n6)c(C6CC6)n5)C4)ccc3C2=O)C(=O)N1 (stereo partly drawn) [GS-803, 3-(5-(((Trans-3-(3-cyclopropyl-4-(5-fluoro-6-(trifluoromethyl)pyridin-2-yl)-1H-pyrazol-1-yl)cyclobutyl)methyl)amino)-1-oxoisoindolin-2-yl)piperidine-2,6-dione]
GSPT1 [1]
  small molecule-mediated targeted degradation of GSPT1: targeted degradation of GSPT1
MOLM-13 cells; [3]
  IC50: < 10 nM
NCI-H1155 cells
  IC50: < 10 nM

## O=C1CCC(N2Cc3cc(NC[C@H]4C[C@H](n5cc(-c6ccc(F)c(C(F)F)n6)c(C6CC6)n5)C4)ccc3C2=O)C(=O)N1 (stereo partly drawn) [GS-802, 3-(5-(((Trans-3-(3-cyclopropyl-4-(6-(difluoromethyl)-5-fluoropyridin-2-yl)-1H-pyrazol-1-yl)cyclobutyl)methyl)amino)-1-oxoisoindolin-2-yl)piperidine-2,6-dione]
GSPT1 [1]
  small molecule-mediated targeted degradation of GSPT1: targeted degradation of GSPT1
MOLM-13 cells; [3]
  IC50: 10 to 100 nM
NCI-H1155 cells
  IC50: 10 to 100 nM

## Cc1nc(-c2cn([C@H]3C[C@H](CNc4ccc5c(c4)CN(C4CCC(=O)NC4=O)C5=O)C3)nc2C2CC2)c(Cl)cc1F (stereo partly shown) [GS-812]
NCI-H82 cells
  IC50: < 10 nM

## Cc1nc(-c2cn([C@H]3C[C@H](CNc4ccc5c(c4)CN([C@H]4CCC(=O)NC4=O)C5=O)C3)nc2C2CC2)ccc1F [GS-800, (S)-3-(5-(((trans-3-(3-cyclopropyl-4-(5-fluoro-6-methylpyridin-2-yl)-1H-pyrazol-1-yl)cyclobutyl)methyl)amino)-1-oxoisoindolin-2-yl)piperidine-2,6-dione]
22RV1 cells
  IC50: < 10 nM
NCI-H82 cells
  IC50: < 10 nM
MOLM-13 cells; [3]
  IC50: < 10 nM
HEL cells
  IC50: 10 to 100 nM

## Cc1ccc(NC(=O)NCc2ccc3c(c2)CN(C2CCC(=O)NC2=O)C3=O)cc1Cl (stereo not shown) [CC-885]
GSPT1 [2]
  cereblon-dependent degradation of GSPT1: led to cereblon-dependent degradation of GSPT1
Tested cell lines
  toxicity in tested cell lines: induced significant toxicity in the vast majority of tested cell lines

## O=C1CCC(N2C(=O)c3ccc(NC[C@H]4C[C@H](n5cc(-c6ncc(F)c7cccnc67)c(C6CC6)n5)C4)cc3C2=O)C(=O)N1 (stereo partly drawn) [GS-697, 5-(((Trans-3-(3-cyclopropyl-4-(5-fluoro-1,7-naphthyridin-8-yl)-1H-pyrazol-1-yl)cyclobutyl)methyl)amino)-2-(2,6-dioxopiperidin-3-yl)isoindoline-1,3-dione]
MV4;11 cells; [4]
  IC50: < 10 nM
MV4;11 cells; [5]
  IC50: < 10 nM
GSPT1 [1]
  small molecule-mediated targeted degradation of GSPT1: targeted degradation of GSPT1
MOLM-13 cells; [3]
  IC50: < 10 nM
MOLM-13 cells; [6]
  IC50: < 10 nM

## O=C1CCC(N2Cc3cc(NC[C@H]4C[C@H](n5cc(-c6ncc(F)c7cccnc67)c(C6CC6)n5)C4)ccc3C2=O)C(=O)N1 (stereo partly drawn) [GS-788, 3-(5-(((Trans-3-(3-cyclopropyl-4-(5-fluoro-1,7-naphthyridin-8-yl)-1H-pyrazol-1-yl)cyclobutyl)methyl)amino)-1-oxoisoindolin-2-yl)piperidine-2,6-dione]
MV4;11 cells; [4]
  IC50: < 10 nM
MV4;11 cells; [5]
  IC50: < 10 nM
GSPT1 [1]
  small molecule-mediated targeted degradation of GSPT1: targeted degradation of GSPT1
MOLM-13 cells; [3]
  IC50: < 10 nM
MOLM-13 cells; [6]
  IC50: < 10 nM

## Cc1ccc(F)c(-c2cn([C@H]3C[C@H](CNc4ccc5c(c4)CN(C4CCC(=O)NC4=O)C5=O)C3)nc2C2CC2)n1 (stereo partly drawn) [GS-807, 3-(5-(((Trans-3-(3-cyclopropyl-4-(3-fluoro-6-methylpyridin-2-yl)-1H-pyrazol-1-yl)cyclobutyl)methyl)amino)-1-oxoisoindolin-2-yl)piperidine-2,6-dione]
22RV1 cells
  IC50: < 10 nM
NCI-H82 cells
  IC50: < 10 nM
HEL cells
  IC50: < 10 nM

## CNc1nc(-c2cn([C@H]3C[C@H](CNc4ccc5c(c4)CN(C4CCC(=O)NC4=O)C5=O)C3)nc2C2CC2)ccc1F (stereo partly drawn) [GS-808, 3-(5-(((Trans-3-(3-cyclopropyl-4-(5-fluoro-6-(methylamino)pyridin-2-yl)-1H-pyrazol-1-yl)cyclobutyl)methyl)amino)-1-oxoisoindolin-2-yl)piperidine-2,6-dione]
NCI-H82 cells
  IC50: < 10 nM
